Measurements from patent US9617267B2, “Compounds and methods for kinase modulation, and indications therefor” (Plexxikon Inc., priority 2009, dated 2017).
Where two headings read alike, the source gives them in different places.

Legend:
B-Raf [1] = target: B-Raf (Homo sapiens (Human), UniProt P15056); assay: B-Raf kinase activity biochemical assay (AlphaScreen, biotin-MEK1 phosphorylation); settings: B-Raf
Method in brief: (§1)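 Compounds from a 0.1 mM DMSO stock were tested at 8 serially diluted points. Kinase reactions with 100 μM ATP (final) ran 45 min at room temperature, then were stopped with EDTA buffer containing anti-phospho-MEK1/2 antibody plus streptavidin donor and protein A acceptor beads.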

B-Raf [2] = assay: as above; settings: for Biochemical activity ratio B/V600E: ratio of IC50 B-Raf / B-Raf V600E; for Biochemical activity ratio B/C: ratio of IC50 B-Raf / c-Raf-1
Method in brief: as §1

B-Raf V600E = B-Raf V600E (Homo sapiens (Human), UniProt P15056, V600E); assay: B-Raf V600E kinase activity biochemical assay (AlphaScreen, biotin-MEK1 phosphorylation); settings: for IC50: B-Raf V600E; for Biochemical activity ratio V600E/C: ratio of IC50 B-Raf V600E / c-Raf-1
Method in brief: as §1

c-Raf-1 = c-Raf-1 (Homo sapiens, UniProt P04049); assay: c-Raf-1 kinase activity biochemical assay (AlphaScreen, biotin-MEK1 phosphorylation)
Method in brief: as §1

[3] = Relative solubility by turbidity threshold concentration in aqueous buffers (pH 1.5, 4.5, 6.8, 7.4); assay type: physicochemical; settings: for turbidity threshold (L, M, H) 1.4: pH 1.4 [sic] (method: SGF pH 1.5); for turbidity threshold (L, M, H) 4.5: pH 4.5 (SIF); for turbidity threshold (L, M, H) 6.8: pH 6.8 (SIF); for turbidity threshold (L, M, H) 7.4: pH 7.4 (HEPES)
Method in brief: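 Solubility class (high >250 μM, moderate 31.3–250 μM, low <31.3 μM) comes from the concentration where absorbance reaches a 0.01 threshold, averaged across 490/535/650 nm. Samples were compound dilutions from DMSO stock, 1 μL into 99 μL buffer at pH 1.5, 4.5, 6.8 or 7.4.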

CYP1A2 = CYP1A2 (Homo sapiens (Human), UniProt P05177); assay: CYP enzyme inhibition, fluorescent substrate (CEC)
Method in brief: (§2)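 IC50 derived from loss of fluorescent metabolite across a 10-point 1:1 dilution series. CYP2D6: 1.5 pmol enzyme, 1.5 μM AMMC, 30 min at 37 °C, 409/530 nm; CYP1A2: 0.5 pmol, 5 μM CEC, 15 min, 409/460 nm. Compounds pre-incubated 10 min in NADPH-regenerating mix.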

CYP2C19 = CYP2C19 (Homo sapiens (Human), UniProt P33261); assay: CYP enzyme inhibition, fluorescent substrate (CEC)
Method in brief: (§3)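 10-pt 1:1 serial dilution in co-factor mix (DMSO stock 100 mM); 10 min preincubation, 37 °C; reaction at 37 °C. Readout: fluorescent metabolite of probe substrate. IC50 from signal vs [compound].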

CYP2C9 = CYP2C9 (Homo sapiens (Human), UniProt P11712); assay: CYP enzyme inhibition, fluorescent substrate (MFC)
Method in brief: as §3

CYP2D6 = CYP2D6 (Homo sapiens (Human), UniProt P10635); assay: CYP enzyme inhibition, fluorescent substrate (AMMC); assay type: in vitro ADME; settings: read-out: Cyp IC50 2D6
Method in brief: as §2

CYP3A4(BFC) = CYP3A4(BFC) (Homo sapiens (Human), UniProt P08684); assay: CYP enzyme inhibition, fluorescent substrate BFC
Method in brief: as §3

CYP3A4(BQ) = CYP3A4(BQ) (Homo sapiens (Human), UniProt P08684); assay: CYP enzyme inhibition, fluorescent substrate BQ
Method in brief: as §3

[4] = read-out: Cyp IC50 1A2, CYP1A2, substrate CEC
[5] = read-out: Cyp IC50 2C19, CYP2C19, substrate CEC
[6] = read-out: Cyp IC50 2C9, CYP2C9, substrate MFC
[7] = read-out: Cyp IC50 3A4(BFC), CYP3A4, substrate BFC
[8] = read-out: Cyp IC50 3A4(BQ), CYP3A4, substrate BQ

Sequence of c-Raf-1 (P04049 whole entry, looked up): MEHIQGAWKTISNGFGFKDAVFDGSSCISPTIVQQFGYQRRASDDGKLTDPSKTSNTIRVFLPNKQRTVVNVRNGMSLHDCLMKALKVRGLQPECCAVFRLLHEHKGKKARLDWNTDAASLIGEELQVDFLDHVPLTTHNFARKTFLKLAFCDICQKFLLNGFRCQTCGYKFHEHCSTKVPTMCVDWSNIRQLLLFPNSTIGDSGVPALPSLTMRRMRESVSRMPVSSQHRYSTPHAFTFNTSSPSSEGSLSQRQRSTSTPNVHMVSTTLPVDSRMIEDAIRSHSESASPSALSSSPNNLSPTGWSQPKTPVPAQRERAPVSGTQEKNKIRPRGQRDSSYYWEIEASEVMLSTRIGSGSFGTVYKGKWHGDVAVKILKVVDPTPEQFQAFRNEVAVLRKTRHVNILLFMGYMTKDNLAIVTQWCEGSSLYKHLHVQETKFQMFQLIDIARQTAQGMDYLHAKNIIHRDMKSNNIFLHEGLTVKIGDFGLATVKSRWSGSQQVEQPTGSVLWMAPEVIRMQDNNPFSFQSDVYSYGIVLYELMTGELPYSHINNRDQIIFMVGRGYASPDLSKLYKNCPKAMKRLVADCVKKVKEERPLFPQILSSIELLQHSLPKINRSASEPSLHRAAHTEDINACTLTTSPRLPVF
Sequence of CYP2D6 (P10635 whole entry): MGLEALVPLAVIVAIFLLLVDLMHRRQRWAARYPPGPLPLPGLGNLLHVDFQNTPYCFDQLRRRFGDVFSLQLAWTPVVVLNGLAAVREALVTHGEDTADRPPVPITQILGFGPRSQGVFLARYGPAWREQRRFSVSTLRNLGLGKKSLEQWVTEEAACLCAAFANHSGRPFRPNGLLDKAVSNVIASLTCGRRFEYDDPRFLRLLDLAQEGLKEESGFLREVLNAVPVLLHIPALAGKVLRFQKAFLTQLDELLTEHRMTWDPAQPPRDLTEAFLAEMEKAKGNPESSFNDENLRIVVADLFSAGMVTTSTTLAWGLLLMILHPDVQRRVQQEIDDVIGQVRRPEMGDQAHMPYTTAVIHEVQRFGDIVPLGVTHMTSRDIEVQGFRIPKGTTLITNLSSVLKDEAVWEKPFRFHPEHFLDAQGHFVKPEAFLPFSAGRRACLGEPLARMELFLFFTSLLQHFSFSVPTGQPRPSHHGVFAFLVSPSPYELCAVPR
Sequence of CYP1A2 (P05177 whole entry): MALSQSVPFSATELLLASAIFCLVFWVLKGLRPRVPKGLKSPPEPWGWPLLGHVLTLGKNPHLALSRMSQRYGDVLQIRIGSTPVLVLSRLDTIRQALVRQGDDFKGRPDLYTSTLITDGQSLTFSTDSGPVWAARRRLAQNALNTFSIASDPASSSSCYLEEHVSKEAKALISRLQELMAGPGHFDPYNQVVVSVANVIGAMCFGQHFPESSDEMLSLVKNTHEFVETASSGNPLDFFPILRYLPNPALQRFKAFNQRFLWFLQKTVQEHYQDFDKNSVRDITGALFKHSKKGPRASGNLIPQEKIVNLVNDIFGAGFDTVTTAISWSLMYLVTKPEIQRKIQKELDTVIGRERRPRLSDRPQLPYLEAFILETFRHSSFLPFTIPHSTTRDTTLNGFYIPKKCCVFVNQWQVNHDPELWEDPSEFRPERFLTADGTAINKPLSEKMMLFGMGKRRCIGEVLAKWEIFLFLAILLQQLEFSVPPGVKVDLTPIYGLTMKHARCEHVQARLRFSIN
Sequence of B-Raf V600E (P15056 whole entry V600E): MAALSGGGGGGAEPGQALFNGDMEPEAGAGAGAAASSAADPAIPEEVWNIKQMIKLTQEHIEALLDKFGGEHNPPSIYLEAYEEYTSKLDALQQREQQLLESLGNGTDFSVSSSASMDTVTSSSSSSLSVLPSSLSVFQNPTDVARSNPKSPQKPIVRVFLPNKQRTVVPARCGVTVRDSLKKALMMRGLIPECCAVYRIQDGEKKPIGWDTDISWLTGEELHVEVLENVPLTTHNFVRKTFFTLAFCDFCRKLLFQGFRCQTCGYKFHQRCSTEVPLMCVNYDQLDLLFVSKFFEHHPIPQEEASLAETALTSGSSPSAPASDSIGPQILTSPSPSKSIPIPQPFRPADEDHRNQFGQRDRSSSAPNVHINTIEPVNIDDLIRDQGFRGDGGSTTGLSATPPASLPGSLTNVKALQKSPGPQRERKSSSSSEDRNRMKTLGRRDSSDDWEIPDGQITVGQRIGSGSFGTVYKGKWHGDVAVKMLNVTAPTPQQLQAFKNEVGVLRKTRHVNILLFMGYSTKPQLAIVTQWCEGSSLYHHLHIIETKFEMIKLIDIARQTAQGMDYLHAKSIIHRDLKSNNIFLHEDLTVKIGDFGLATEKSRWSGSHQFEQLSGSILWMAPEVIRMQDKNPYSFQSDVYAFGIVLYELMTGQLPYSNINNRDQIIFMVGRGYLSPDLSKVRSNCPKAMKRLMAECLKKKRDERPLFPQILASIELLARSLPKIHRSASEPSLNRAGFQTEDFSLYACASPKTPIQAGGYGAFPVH
Sequence of B-Raf (Homo sapiens (Human), UniProt P15056) (P15056 whole entry): as the sequence (P15056 whole entry V600E) above, with E600V counted along it
Sequence of CYP3A4(BQ) (P08684 whole entry): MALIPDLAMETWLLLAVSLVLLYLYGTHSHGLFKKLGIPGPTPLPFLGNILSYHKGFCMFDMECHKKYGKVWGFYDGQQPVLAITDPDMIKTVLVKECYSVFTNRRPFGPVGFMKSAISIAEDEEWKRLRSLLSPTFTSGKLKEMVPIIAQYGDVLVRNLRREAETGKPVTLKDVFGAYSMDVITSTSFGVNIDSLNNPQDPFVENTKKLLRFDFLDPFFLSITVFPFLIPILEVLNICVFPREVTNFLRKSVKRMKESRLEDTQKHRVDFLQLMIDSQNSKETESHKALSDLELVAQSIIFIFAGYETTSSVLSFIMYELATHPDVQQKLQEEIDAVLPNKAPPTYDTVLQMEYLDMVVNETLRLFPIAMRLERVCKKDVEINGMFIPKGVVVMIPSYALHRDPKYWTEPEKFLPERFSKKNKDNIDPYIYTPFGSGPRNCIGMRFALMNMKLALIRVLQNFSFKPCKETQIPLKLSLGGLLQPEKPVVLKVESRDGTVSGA
Sequence of CYP3A4(BFC) (P08684 whole entry): as above
Sequence of CYP2C19 (P33261 whole entry): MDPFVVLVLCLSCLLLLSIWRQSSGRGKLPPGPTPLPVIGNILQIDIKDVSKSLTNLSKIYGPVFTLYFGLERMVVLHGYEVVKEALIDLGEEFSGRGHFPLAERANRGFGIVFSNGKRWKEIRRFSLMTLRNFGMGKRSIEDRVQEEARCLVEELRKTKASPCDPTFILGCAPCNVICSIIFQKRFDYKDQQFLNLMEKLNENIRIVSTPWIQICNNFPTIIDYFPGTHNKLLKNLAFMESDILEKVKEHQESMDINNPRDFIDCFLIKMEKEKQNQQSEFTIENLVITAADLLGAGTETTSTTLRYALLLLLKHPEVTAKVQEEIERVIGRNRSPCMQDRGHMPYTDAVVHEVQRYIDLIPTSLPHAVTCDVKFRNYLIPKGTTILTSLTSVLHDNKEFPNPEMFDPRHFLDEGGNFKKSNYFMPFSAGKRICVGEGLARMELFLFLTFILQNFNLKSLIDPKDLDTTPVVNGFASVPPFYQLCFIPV
Sequence of CYP2C9 (P11712 whole entry): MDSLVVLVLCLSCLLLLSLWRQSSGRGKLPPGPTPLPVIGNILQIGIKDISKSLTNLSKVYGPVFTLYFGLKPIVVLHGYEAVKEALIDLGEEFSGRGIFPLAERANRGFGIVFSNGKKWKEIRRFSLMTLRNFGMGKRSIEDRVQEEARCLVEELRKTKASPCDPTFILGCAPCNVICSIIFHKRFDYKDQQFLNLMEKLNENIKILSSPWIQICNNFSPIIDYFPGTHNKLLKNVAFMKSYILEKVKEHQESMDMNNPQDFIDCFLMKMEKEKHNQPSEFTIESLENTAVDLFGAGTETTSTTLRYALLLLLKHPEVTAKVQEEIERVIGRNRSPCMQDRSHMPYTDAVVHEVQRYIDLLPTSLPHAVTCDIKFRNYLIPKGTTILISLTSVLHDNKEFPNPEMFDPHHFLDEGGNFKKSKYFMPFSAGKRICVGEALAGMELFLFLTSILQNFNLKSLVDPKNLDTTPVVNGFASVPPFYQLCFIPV

SMILES | IC50 (B-Raf [1]) | Biochemical activity ratio B/V600E (B-Raf [2]) | Biochemical activity ratio B/C (B-Raf [2]) | IC50 (B-Raf V600E) | Biochemical activity ratio V600E/C (B-Raf V600E) | IC50 (c-Raf-1) | turbidity threshold (L, M, H) 1.4 [3] | turbidity threshold (L, M, H) 4.5 [3] | turbidity threshold (L, M, H) 6.8 [3] | turbidity threshold (L, M, H) 7.4 [3] | IC50 (CYP2C19; [5]) | IC50 (CYP2C9; [6]) | IC50 (CYP2D6) | IC50 (CYP3A4(BFC); [7]) | IC50 (CYP3A4(BQ); [8]) | IC50 (CYP2C9) | IC50 (CYP1A2; human, 15 min) | other results
O=C(c1c(F)ccc(NS(=O)(=O)c2ccc(C(F)(F)F)cc2)c1F)c1c[nH]c2ncnc(NC3CCOCC3)c12 [P-1013, N-{2,4-Difluoro-3-[4-(tetrahydro-pyran-4-ylamino)-7H-pyrrolo[2,3-d]pyrimidine-5-carbonyl]-phenyl}-4-trifluoromethyl-benzenesulfonamide] | < 0.1 µM | 0.1-10 | >10 | > 0.1 µM | >10 | < 0.1 µM | L (low solubility if the threshold concentration is <31.3 μM) | L (low solubility if the threshold concentration is <31.3 μM) | L (low solubility if the threshold concentration is <31.3 μM) | M (moderate solubility if the threshold concentration is 31.3 μM to 250 μM) | > 10 µM | > 10 µM | > 10 µM | > 10 µM | > 10 µM | – | – | IC50 (CYP1A2; [4]): > 10 µM
CCCS(=O)(=O)Nc1ccc(F)c(C(=O)c2c[nH]c3ncc(C#N)c(OC)c23)c1F [P-2005, Propane-1-sulfonic acid [3-(5-cyano-4-methoxy-1H-pyrrolo[2,3-b]pyridine-3-carbonyl)-2,4-difluoro-phenyl]-amide] | < 0.1 µM | 0.1-10 | 0.1-10 | < 0.1 µM | 0.1-10 | < 0.1 µM | M (moderate solubility if the threshold concentration is 31.3 μM to 250 μM) | L (low solubility if the threshold concentration is <31.3 μM) | L (low solubility if the threshold concentration is <31.3 μM) | M (moderate solubility if the threshold concentration is 31.3 μM to 250 μM) | – | – | > 10 µM | – | – | < 5 µM | – | IC50 (CYP1A2): > 10 µM; IC50 (CYP2C19): > 10 µM; IC50 (CYP3A4(BFC)): > 10 µM; IC50 (CYP3A4(BQ)): > 10 µM
O=C(c1c(F)ccc(NS(=O)(=O)c2ccc(C(F)(F)F)cc2)c1F)c1c[nH]c2ncnc(NCCO)c12 [P-1043, N-{2,4-Difluoro-3-[4-(2-hydroxy-ethylamino)-7H-pyrrolo[2,3-d]pyrimidine-5-carbonyl]-phenyl}-4-trifluoromethyl-benzenesulfonamide] | < 0.1 µM | 0.1-10 | >10 | > 0.1 µM | >10 | < 0.1 µM | H (high solubility if the threshold concentration is >250 μm) | M (moderate solubility if the threshold concentration is 31.3 μM to 250 μM) | M (moderate solubility if the threshold concentration is 31.3 μM to 250 μM) | M (moderate solubility if the threshold concentration is 31.3 μM to 250 μM) | > 10 µM | > 10 µM | > 10 µM | > 10 µM | > 10 µM | – | > 10 µM | –
CCCc1ccc(S(=O)(=O)Nc2ccc(F)c(C(=O)c3c[nH]c4ncnc(NC(C)C)c34)c2F)cc1 [P-1055, N-[2,4-Difluoro-3-(4-isopropylamino-7H-pyrrolo[2,3-d]pyrimidine-5-carbonyl)-phenyl]-4-propyl-benzenesulfonamide] | < 0.1 µM | 0.1-10 | 0.1-10 | > 0.1 µM | >10 | < 0.1 µM | L (low solubility if the threshold concentration is <31.3 μM) | L (low solubility if the threshold concentration is <31.3 μM) | L (low solubility if the threshold concentration is <31.3 μM) | L (low solubility if the threshold concentration is <31.3 μM) | < 5 µM | – | > 10 µM | – | > 10 µM | 5 to 10 µM | > 10 µM | IC50 (CYP3A4(BFC)): 5 to 10 µM
CCc1ccc(S(=O)(=O)Nc2ccc(F)c(C(=O)c3c[nH]c4ncnc(OC)c34)c2F)cc1 [P-1008, N-[2,4-Difluoro-3-(4-methoxy-7H-pyrrolo[2,3-d]pyrimidine-5-carbonyl)-phenyl]-4-ethyl-benzenesulfonamide] | > 0.1 µM | 0.1-10 | 0.1-10 | > 0.1 µM | 0.1-10 | > 0.1 µM | M (moderate solubility if the threshold concentration is 31.3 μM to 250 μM) | M (moderate solubility if the threshold concentration is 31.3 μM to 250 μM) | L (low solubility if the threshold concentration is <31.3 μM) | M (moderate solubility if the threshold concentration is 31.3 μM to 250 μM) | > 10 µM | – | > 10 µM | > 10 µM | > 10 µM | 5 to 10 µM | > 10 µM | –
Cc1ncnc2[nH]cc(C(=O)c3c(F)ccc(NS(=O)(=O)c4ccc(C(F)(F)F)cc4)c3F)c12 [P-1001, N-[2,4-Difluoro-3-(4-methyl-7H-pyrrolo[2,3-d]pyrimidine-5-carbonyl)-phenyl]-4-trifluoromethyl-benzenesulfonamide] | < 0.1 µM | 0.1-10 | 0.1-10 | > 0.1 µM | >10 | < 0.1 µM | H (high solubility if the threshold concentration is >250 μm) | M (moderate solubility if the threshold concentration is 31.3 μM to 250 μM) | M (moderate solubility if the threshold concentration is 31.3 μM to 250 μM) | M (moderate solubility if the threshold concentration is 31.3 μM to 250 μM) | > 10 µM | > 10 µM | > 10 µM | < 5 µM | > 10 µM | – | > 10 µM | –
CCOc1ncnc2[nH]cc(C(=O)c3c(F)ccc(NS(=O)(=O)c4ccc(C(F)(F)F)cc4)c3F)c12 [P-1006, N-[3-(4-Ethoxy-7H-pyrrolo[2,3-d]pyrimidine-5-carbonyl)-2,4-difluoro-phenyl]-4-trifluoromethyl-benzenesulfonamide] | > 0.1 µM | 0.1-10 | 0.1-10 | > 0.1 µM | >10 | < 0.1 µM | L (low solubility if the threshold concentration is <31.3 μM) | L (low solubility if the threshold concentration is <31.3 μM) | L (low solubility if the threshold concentration is <31.3 μM) | H (high solubility if the threshold concentration is >250 μm) | > 10 µM | – | > 10 µM | < 5 µM | > 10 µM | 5 to 10 µM | – | IC50 (CYP1A2; [4]): > 10 µM
CN1CCC(Nc2ncnc3[nH]cc(C(=O)c4c(F)ccc(NS(=O)(=O)c5ccc(C(F)(F)F)cc5)c4F)c23)CC1 [P-1057, N-{2,4-Difluoro-3-[4-(1-methyl-piperidin-4-ylamino)-7H-pyrrolo[2,3-d]pyrimidine-5-carbonyl]-phenyl}-4-trifluoromethyl-benzenesulfonamide] | < 0.1 µM | 0.1-10 | 0.1-10 | > 0.1 µM | >10 | < 0.1 µM | H (high solubility if the threshold concentration is >250 μm) | H (high solubility if the threshold concentration is >250 μm) | M (moderate solubility if the threshold concentration is 31.3 μM to 250 μM) | M (moderate solubility if the threshold concentration is 31.3 μM to 250 μM) | > 10 µM | > 10 µM | > 10 µM | > 10 µM | > 10 µM | – | > 10 µM | –
